Data: ChEMBL document CHEMBL4627276, “CT2-3, a novel magnolol analogue suppresses NSCLC cells through triggering cell cycle arrest and apoptosis” (Bioorg Med Chem, 2020)
Calls of active or inactive are those of the source. The calls are words filed in the database; no cut-off is given here.

What was measured:
NCI-H460 [1] = test: Antiproliferative activity against human H460 cells assessed as inhibition of cell viability incubated for 24 hrs by CCK-8 assay; assay type: functional, cell-based; conditions: for IC50: NCI-H460, 24 h
A549 [2] = test: Antiproliferative activity against human A549 cells assessed as inhibition of cell viability at 40 uM incubated for 24 hrs by CCK-8 assay; assay type: functional, cell-based
A549 [3] = test: Antiproliferative activity against human A549 cells assessed as inhibition of cell viability incubated for 24 hrs by CCK-8 assay; assay type: functional, cell-based; conditions: for IC50: A549, 24 h
NCI-H460 [4] = test: Antiproliferative activity against human H460 cells assessed as inhibition of cell viability at 40 uM incubated for 24 hrs by CCK-8 assay; assay type: functional, cell-based
A549 [5] = test: Inhibition of colony formation in human A549 cells at 20 uM incubated for 48 hrs and measured after 10 days culturing in normal media by Giemsa staining based inverted microscopy; assay type: functional, cell-based
NCI-H460 [6] = test: Inhibition of colony formation in human H460 cells at 20 uM incubated for 48 hrs and measured after 10 days culturing in normal media by Giemsa staining based inverted microscopy; assay type: functional, cell-based
A549 [7] = test: Induction of apoptosis in human A549 cells assessed as early apoptotic cells at 40 uM incubated for 24 hrs by Annexin V-FITC/propidium iodide staining based flow cytometric method (reference value: 0.3%); assay type: functional
NCI-H460 [8] = test: Downregulation of Cyclin D1 mRNA expression in human H460 cells at 40 uM after 24 hrs by RT-qPCR analysis; assay type: functional, cell-based
A549 [9] = test: Induction of apoptosis in human A549 cells assessed as necrotic cell at 20 uM incubated for 24 hrs by Annexin V-FITC/propidium iodide staining based flow cytometric method (reference value: 2.4%); assay type: functional
NCI-H460 [10] = test: Induction of apoptosis in human H460 cells assessed as live cells at 20 uM incubated for 24 hrs by Annexin V-FITC/propidium iodide staining based flow cytometric method (reference value: 91.2%); assay type: functional
NCI-H460 [11] = test: Induction of apoptosis in human H460 cells assessed as live cells at 40 uM incubated for 24 hrs by Annexin V-FITC/propidium iodide staining based flow cytometric method (reference value: 91.2%); assay type: functional
NCI-H460 [12] = test: Antiproliferative activity against human H460 cells assessed as cell viability at 40 uM incubated for 24 hrs by CCK-8 assay; assay type: functional; conditions: NCI-H460, 24 h, read-out: Activity
NCI-H460 [13] = test: Induction of apoptosis in human H460 cells assessed as early apoptotic cells at 40 uM incubated for 24 hrs by Annexin V-FITC/propidium iodide staining based flow cytometric method (reference value: 2.4%); assay type: functional
NCI-H460 [14] = test: Downregulation of TOP2B mRNA expression in human H460 cells incubated for 24 hrs by RT-qPCR analysis; assay type: functional, cell-based
A549 [15] = test: Induction of apoptosis in human A549 cells assessed as live cells at 40 uM incubated for 24 hrs by Annexin V-FITC/propidium iodide staining based flow cytometric method (reference value: 95.6%); assay type: functional
[16] = Cytotoxicity against mouse MFF cells assessed as inhibition of cell viability after 24 hrs; assay type: cell-based
A549 [17] = test: Antiproliferative activity against human A549 cells assessed as cell viability at 40 uM incubated for 24 hrs by CCK-8 assay; assay type: functional; conditions: A549, 24 h, read-out: Activity
NCI-H460 [18] = test: Downregulation of CDK4 mRNA expression in human H460 cells at 40 uM after 24 hrs by RT-qPCR analysis; assay type: functional, cell-based
NCI-H460 [19] = test: Downregulation of TOP2B protein expression in human H460 cells at 40 uM incubated for 24 hrs by western blot analysis; assay type: functional, cell-based
A549 [20] = test: Induction of apoptosis in human A549 cells assessed as late apoptotic cells at 40 uM incubated for 24 hrs by Annexin V-FITC/propidium iodide staining based flow cytometric method (reference value: 1.7%); assay type: functional
A549 [21] = test: Induction of apoptosis in human A549 cells assessed as early apoptotic cells at 20 uM incubated for 24 hrs by Annexin V-FITC/propidium iodide staining based flow cytometric method (reference value: 0.3%); assay type: functional
A549 [22] = test: Induction of apoptosis in human A549 cells assessed as late apoptotic cells at 20 uM incubated for 24 hrs by Annexin V-FITC/propidium iodide staining based flow cytometric method (reference value: 1.7%); assay type: functional
NCI-H460 [23] = test: Downregulation of CDK6 mRNA expression in human H460 cells at 40 uM after 24 hrs by RT-qPCR analysis; assay type: functional, cell-based
NCI-H460 [24] = test: Downregulation of c-Myc protein expression level in human H460 cells at 40 uM incubated for 24 hrs by western blot analysis; assay type: functional, cell-based
A549 [25] = test: Induction of ROS generation in human A549 cells incubated for 24 hrs by DCFH-DA staining based fluorescence microscopy; assay type: functional, cell-based
NCI-H460 [26] = test: Induction of apoptosis in human H460 cells assessed as early apoptotic cells at 20 uM incubated for 24 hrs by Annexin V-FITC/propidium iodide staining based flow cytometric method (reference value: 2.4%); assay type: functional
NCI-H460 [27] = test: Induction of apoptosis in human H460 cells assessed as necrotic cell at 20 uM incubated for 24 hrs by Annexin V-FITC/propidium iodide staining based flow cytometric method (reference value: 2.1%); assay type: functional
NCI-H460 [28] = test: Downregulation of TOP3B mRNA expression in human H460 cells incubated for 24 hrs by RT-qPCR analysis; assay type: functional, cell-based
NCI-H460 [29] = test: Induction of apoptosis in human H460 cells assessed as necrotic cell at 40 uM incubated for 24 hrs by Annexin V-FITC/propidium iodide staining based flow cytometric method (reference value: 2.1%); assay type: functional
NCI-H460 [30] = test: Downregulation of c-Myc mRNA expression level in human H460 cells incubated for 24 hrs by RT-qPCR analysis; assay type: functional, cell-based
NCI-H460 [31] = test: Induction of apoptosis in human H460 cells assessed as late apoptotic cells at 40 uM incubated for 24 hrs by Annexin V-FITC/propidium iodide staining based flow cytometric method (reference value: 4.3%); assay type: functional
NCI-H460 [32] = test: Induction of apoptosis in human H460 cells assessed as late apoptotic cells at 20 uM incubated for 24 hrs by Annexin V-FITC/propidium iodide staining based flow cytometric method (reference value: 4.3%); assay type: functional
A549 [33] = test: Induction of apoptosis in human A549 cells assessed as live cells at 20 uM incubated for 24 hrs by Annexin V-FITC/propidium iodide staining based flow cytometric method (reference value: 95.6%); assay type: functional
NCI-H460 [34] = test: Induction of ROS generation in human H460 cells incubated for 24 hrs by DCFH-DA staining based fluorescence microscopy; assay type: functional, cell-based
NCI-H460 [35] = test: Downregulation of TOP3B protein expression in human H460 cells at 40 uM incubated for 24 hrs by western blot analysis; assay type: functional, cell-based
NCI-H460 [36] = test: Cell cycle arrest in human H460 cells assessed as accumulation of cells at G1 phase at 40 uM incubated for 24 hrs by PI staining based flow cytometric analysis; assay type: functional
A549 [37] = test: Induction of apoptosis in human A549 cells assessed as necrotic cell at 40 uM incubated for 24 hrs by Annexin V-FITC/propidium iodide staining based flow cytometric method (reference value: 2.4%); assay type: functional

C=CCc1ccc(O)c(-c2cc(CC=C)ccc2O)c1 [MAGNOLOL]
IC50 (NCI-H460 [1]): > 80 µM
Activity (A549 [2]): inactive
IC50 (A549 [3]): > 80 µM
Activity (NCI-H460 [4]): inactive
inhibition (A549 [5]): inactive
inhibition (NCI-H460 [6]): inactive

C=CCc1ccc(O)c(-c2cc(CC=C)ccc2OCCS(=O)(=O)CCCCN2C(=O)c3ccccc3C2=O)c1
Activity (A549 [2]): inactive
Activity (NCI-H460 [4]): inactive

C=CCc1ccc(O)c(-c2cc(CC=C)ccc2OCC[S+]([O-])CCCCN2C(=O)c3ccccc3C2=O)c1 (configuration not stated)
Activity (A549 [7]): 0.8%
inhibition (NCI-H460 [8]): Active
Activity (A549 [9]): 3%
inhibition (NCI-H460 [1]): Dose-dependent effect
IC50 (NCI-H460 [1]): 38 µM
Activity (NCI-H460 [10]): 66.7%
Activity (NCI-H460 [11]): 46.6%
viability at 40 µM (NCI-H460 [12]): 48.4%
Activity (NCI-H460 [13]): 5.7%
inhibition (NCI-H460 [14]): Active
Activity (A549 [15]): 56.7%
Activity [16]: Non-Toxic
viability at 40 µM (A549 [17]): 51%
inhibition (NCI-H460 [18]): Active
inhibition (NCI-H460 [19]): Active
Activity (A549 [20]): 34.5%
Activity (A549 [21]): 1.9%
Activity (A549 [22]): 11.9%
inhibition (NCI-H460 [23]): Active
inhibition (A549 [3]): Dose-dependent effect
IC50 (A549 [3]): 41.6 µM
inhibition (NCI-H460 [24]): Active
Activity (A549 [25]): Dose-dependent effect
Activity (NCI-H460 [26]): 6.8%
Activity (NCI-H460 [27]): 7.9%
inhibition (NCI-H460 [28]): Active
Activity (NCI-H460 [29]): 9.6%
inhibition (NCI-H460 [30]): Active
Activity (NCI-H460 [31]): 38.1%
Activity (NCI-H460 [32]): 18.6%
Activity (A549 [33]): 83.2%
inhibition (A549 [5]): Active
inhibition (NCI-H460 [6]): Active
Activity (NCI-H460 [34]): Dose-dependent effect
inhibition (NCI-H460 [35]): Active
Activity (NCI-H460 [36]): Active
Activity (A549 [37]): 8%

C=CCc1ccc(O)c(-c2cc(CC=C)ccc2OCCSCCCCN2C(=O)c3ccccc3C2=O)c1
Activity (A549 [2]): inactive
Activity (NCI-H460 [4]): inactive
